Measured values: paper PMC7377239, “Cardiovascular Effects of Polychlorinated Biphenyls and Their Major Metabolites” (Environmental Health Perspectives, 2020)
Counter-ions that a name gives are not always drawn. Like-named read-outs stand apart in the source and are kept apart here.

Assays:
HUVECs = assay: Tube formation (tubulogenesis) assay in HUVECs, 18 h; format: cell-based, human; details: Homo sapiens, HUVEC, 18 h; for activity at 0.1 µM: 0.10 µM
In short: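 HUVECs (passage 1–5) seeded on reduced-growth-factor basement membrane and exposed to compounds overnight at 37°C, 5% CO2, in 2× maintenance medium with 12.5 ng/mL VEGF; 0.5% DMSO vehicle. Calcein AM-stained tube networks imaged and analysed; vehicle-normalized readouts fit to four-parameter logistic, POD set at one SD of vehicle means.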

[1] = test system: iCell endothelial cells (human iPSC-derived ECs); assay: High-content imaging cytotoxicity in iCell endothelial cells, 24 h; format: cell-based; details: Homo sapiens, Endothelial cell, 24 hr; for viability at 0.1 µM / activity at 0.1 µM: 0.10 µM
In short: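 Human iPSC-derived endothelial cells (passages 1–5) were grown to a fibronectin-coated monolayer, then exposed 24 h at 37 °C with 0.5% DMSO vehicle. Staining was Hoechst 33342, MitoTracker Orange and calcein AM, read by high-content imaging. Point of departure came from 4-parameter logistic fits, with a 1-SD vehicle cutoff and 100 µM as the top concentration.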

[2] = HUVECs, 0.00 µM = 100.00, read-out: huvec.mtl.18hr
[3] = HUVECs, 0.00 µM = 100.00, read-out: huvec.tlps.18hr
[4] = HUVECs, 0.00 µM = 100.00, read-out: huvec.tta.18hr
[5] = HUVECs, 0.00 µM = 100.00, read-out: huvec.ttl.18hr
[6] = iPSC-EC, 0.00 µM control = 100.00, read-out: endo.cyto.24hr
[7] = iPSC-EC, 0.00 µM control = 100.00, read-out: endo.mito.24hr
[8] = iPSC-EC, 0.00 µM control = 100.00, read-out: endo.mitoint.24hr
[9] = iPSC-EC, 0.00 µM control = 100.00, read-out: endo.nma.24hr
[10] = iPSC-EC, 0.00 µM control = 100.00, read-out: endo.tc.24hrs

Structure (SMILES): Oc1cccc(-c2ccc(Cl)cc2)c1 [3'-OH PCB3]
- activity at 0.01 µM (HUVECs; [2]): 96.9%
- activity at 0.01 µM (HUVECs; [3]): 88.1%
- activity at 0.01 µM (HUVECs; [4]): 90.6%
- activity at 0.01 µM (HUVECs; [5]): 92%
- activity at 0.1 µM (HUVECs; [2]): 102%
- activity at 0.1 µM (HUVECs; [3]): 83.7%
- activity at 0.1 µM (HUVECs; [4]): 124%
- activity at 0.1 µM (HUVECs; [5]): 127%
- activity at 1 µM (HUVECs; [2]): 93%
- activity at 1 µM (HUVECs; [3]): 89.2%
- activity at 1 µM (HUVECs; [4]): 91.7%
- activity at 1 µM (HUVECs; [5]): 95.4%
- activity at 10 µM (HUVECs; [2]): 70.2%
- activity at 10 µM (HUVECs; [3]): 66.1%
- activity at 10 µM (HUVECs; [4]): 58.6%
- activity at 10 µM (HUVECs; [5]): 61.5%
- activity at 100 µM (HUVECs; [2]): 72.3%
- activity at 100 µM (HUVECs; [3]): 25.9%
- activity at 100 µM (HUVECs; [4]): 17.3%
- activity at 100 µM (HUVECs; [5]): 15.5%
- minimal effective concentration (HUVECs; HUVECs, top concentration 100.00 µM, read-out: huvec.mtl.18hr POD): 1.14 µM
- minimal effective concentration (HUVECs; HUVECs, top concentration 100.00 µM, read-out: huvec.tlps.18hr POD): 1.01 µM
- minimal effective concentration (HUVECs; HUVECs, top concentration 100.00 µM, read-out: huvec.tta.18hr POD): 3.65 µM
- minimal effective concentration (HUVECs; HUVECs, top concentration 100.00 µM, read-out: huvec.ttl.18hr POD): 3.26 µM
- viability at 0.01 µM [1, 6]: 93.4%
- activity at 0.01 µM [1, 7]: 93.6%
- activity at 0.01 µM [1, 8]: 123%
- activity at 0.01 µM [1, 9]: 101%
- viability at 0.01 µM [1, 10]: 93.4%
- viability at 0.1 µM [1, 6]: 99.8%
- activity at 0.1 µM [1, 7]: 100%
- activity at 0.1 µM [1, 8]: 111%
- activity at 0.1 µM [1, 9]: 97.6%
- viability at 0.1 µM [1, 10]: 99.8%
- viability at 1 µM [1, 6]: 98.9%
- activity at 1 µM [1, 7]: 99.4%
- activity at 1 µM [1, 8]: 118%
- activity at 1 µM [1, 9]: 97.4%
- viability at 1 µM [1, 10]: 98.9%
- viability at 10 µM [1, 6]: 102%
- activity at 10 µM [1, 7]: 102%
- activity at 10 µM [1, 8]: 129%
- activity at 10 µM [1, 9]: 98.3%
- viability at 10 µM [1, 10]: 102%
- viability at 100 µM [1, 6]: 45.2%
- activity at 100 µM [1, 7]: 58%
- activity at 100 µM [1, 8]: 98.4%
- activity at 100 µM [1, 9]: 90.1%
- viability at 100 µM [1, 10]: 79.2%
- minimal effective concentration ([1]; iPSC-EC, top concentration 100.00 µM, read-out: endo.cyto.24hr POD): 45.8 µM
- minimal effective concentration ([1]; iPSC-EC, top concentration 100.00 µM, read-out: endo.mito.24hr POD): 45.8 µM
- minimal effective concentration ([1]; iPSC-EC, top concentration 100.00 µM, read-out: endo.mitoint.24hr POD): 100 µM
- minimal effective concentration ([1]; iPSC-EC, top concentration 100.00 µM, read-out: endo.nma.24hr POD): 9.75 µM
- minimal effective concentration ([1]; iPSC-EC, top concentration 100.00 µM, read-out: endo.tc.24hrs POD): 53.2 µM

Structure (SMILES): O=S(=O)(O)Oc1cc(Cl)c(-c2cc(Cl)ccc2Cl)cc1Cl [4-PCB 52 sulfate]
- minimal effective concentration (HUVECs; tube formation mtl, read-out: POD huvec.mtl.18hr): 14.6 µM
- minimal effective concentration (HUVECs; tube formation tlps, read-out: POD huvec.tlps.18hr): 10.1 µM
- minimal effective concentration (HUVECs; tube formation tta, read-out: POD huvec.tta.18hr): 100 µM
- minimal effective concentration (HUVECs; tube formation ttl, read-out: POD huvec.ttl.18hr): 100 µM
- minimal effective concentration ([1]; endothelial cells (endo), cyto, read-out: POD endo.cyto.24hr): 41.2 µM
- minimal effective concentration ([1]; endothelial cells (endo), mito, read-out: POD endo.mito.24hr): 41.2 µM
- minimal effective concentration ([1]; endothelial cells (endo), mitoint, read-out: POD endo.mitoint.24hr): 100 µM
- minimal effective concentration ([1]; endothelial cells (endo), nma, read-out: POD endo.nma.24hr): 100 µM
- minimal effective concentration ([1]; endothelial cells (endo), tc, read-out: POD endo.tc.24hr): 50.3 µM
